Experimental data taken from US9695155B2, “Herbicidal substituted pyrimidinyloxy benzene compounds” (E. I. DU PONT DE NEMOURS AND COMPANY, priority 2013, dated 2017).

Tests used:
giant foxtail = assay: Test C postemergence; format: in vivo, Setaria faberii; conditions: Setaria faberi, post-emergence
In short: (§1)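 Whole-plant greenhouse test with surfactant-containing solvent formulation, applied preemergence to sown loam–sand pots or postemergence to 2–18 cm plants. Scored by eye 13 to 15 days on, 0–100 scale.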

pigweed [1] = assay: Test A preemergence; format: in vivo, Amaranthus retroflexus; conditions: Amaranthus retroflexus, pre-emergence, 0 to 100 scale where 0 is no effect and 100 is complete control
In short: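 Scoring: eye-based comparison with untreated controls, 0 for no effect through 100 for complete control, at about day 10. Treatments: directed soil spray preemergence; foliar spray postemergence on 2–10 cm plants at the one- to two-leaf stage. Medium: loam soil with sand.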

wheat, winter = assay: Test C postemergence; format: in vivo, Triticum aestivum; conditions: Triticum aestivum, post-emergence
In short: as §1

chickweed = assay: Test C postemergence; format: in vivo, Stellaria media; conditions: Stellaria media, post-emergence
In short: as §1

wild oat = assay: Test C postemergence; format: in vivo, Avena fatua; conditions: Avena fatua, post-emergence
In short: as §1

yellow nutsedge [2] = assay: Test C postemergence; format: in vivo, Cyperus esculentus; conditions: Cyperus, post-emergence
In short: as §1

corn = assay: Test C postemergence; format: in vivo, Zea mays; conditions: Zea mays, post-emergence
In short: as §1

blackgrass [3] = assay: Test C postemergence; format: in vivo, Alopecurus myosuroides; conditions: Alopecurus myosuroides, post-emergence
In short: as §1

yellow nutsedge [4] = assay: Test C preemergence; format: in vivo, Cyperus esculentus; conditions: Cyperus, pre-emergence, preemergence, read-out: Nutsedge, Yellow plant response rating
In short: as §1

pigweed [5] = assay: Test C preemergence; format: in vivo, Amaranthus retroflexus; conditions: Amaranthus retroflexus, pre-emergence, preemergence, read-out: Pigweed plant response rating
In short: as §1

soybean = assay: Test C preemergence; format: in vivo, Glycine max; conditions: Glycine max, pre-emergence, preemergence, read-out: Soybean plant response rating
In short: as §1

blackgrass [6] = assay: Test C preemergence; format: in vivo, Alopecurus myosuroides; conditions: Alopecurus myosuroides, pre-emergence
In short: as §1

morningglory = assay: Test C preemergence; format: in vivo, Ipomoea coccinea; conditions: Ipomoea, pre-emergence, preemergence, read-out: Morningglory plant response rating
In short: as §1

barnyardgrass = assay: Test C postemergence; format: in vivo, Echinochloa crus-galli; conditions: Echinochloa crus-galli, post-emergence
In short: as §1

ragweed = assay: Test C preemergence; format: in vivo, Ambrosia elatior; conditions: Ambrosia artemisiifolia, pre-emergence, preemergence, read-out: Ragweed plant response rating
In short: as §1

Italian ryegrass = assay: Test C preemergence; format: in vivo, Lolium multiflorum; conditions: Lolium multiflorum, pre-emergence, preemergence, read-out: Ryegrass, Italian plant response rating
In short: as §1

[7] = 16 g ai/ha, scale 0 to 100 (0 no effect, 100 complete control)
[8] = 62 g ai/ha, scale 0 (no effect) to 100 (complete control)
[9] = 125 g ai/ha, scale 0 (no effect) to 100 (complete control)

For `FC(F)(F)COc1cnn(-c2ccccc2Oc2ncc(Cl)cn2)c1` [Compound 138, 5-chloro-2-[2-[4-(2,2,2-trifluoroethoxy)-1H-pyrazol-1-yl]phenoxy]pyrimidine], the pest or weed control at 16 g/ha (giant foxtail; 16 g ai/ha, postemergence, 0 is no effect, 100 is complete control, read-out: Plant response rating (0 to 100), Foxtail, Giant) was 5%, the pest or weed control at 125 g/ha (giant foxtail; 125 g ai/ha, postemergence, visual rating, scale 0 to 100 (0 no effect, 100 complete control), read-out: Plant response rating, Foxtail, Giant) was 50% and the pest or weed control at 62 g/ha (giant foxtail; Postemergence, 62 g ai/ha, scale 0 to 100 (0 no effect, 100 complete control), read-out: Plant response rating, Foxtail, Giant) was 10%. For the same molecule, the pest or weed control at 125 g/ha (pigweed [1]; 125 g ai/ha, read-out: Plant response rating, Pigweed) was 90%, the pest or weed control at 500 g/ha (pigweed [1]; 240 h, 500 g ai/ha, read-out: Pigweed plant response rating) was 100% and the plant injury at 16 g/ha (wheat, winter; 16 g ai/ha, postemergence, 0 is no effect, 100 is complete control, read-out: Plant response rating (0 to 100), Wheat) was 0%. It also gave a plant injury at 125 g/ha (wheat, winter; 125 g ai/ha, postemergence, visual rating, scale 0 to 100 (0 no effect, 100 complete control), read-out: Plant response rating, Wheat) of 5%, a plant injury at 62 g/ha (wheat, winter; Postemergence, 62 g ai/ha, scale 0 to 100 (0 no effect, 100 complete control), read-out: Plant response rating, Wheat) of 0% and a pest or weed control at 16 g/ha (chickweed; 16 g ai/ha, postemergence, 0 is no effect, 100 is complete control, read-out: Plant response rating (0 to 100), Chickweed) of 5%. It also gave a pest or weed control at 125 g/ha (chickweed; 125 g ai/ha, postemergence, visual rating, scale 0 to 100 (0 no effect, 100 complete control), read-out: Plant response rating, Chickweed) of 55%, a pest or weed control at 62 g/ha (chickweed; Postemergence, 62 g ai/ha, scale 0 to 100 (0 no effect, 100 complete control), read-out: Plant response rating, Chickweed) of 50% and a pest or weed control at 16 g/ha (wild oat; 16 g ai/ha, postemergence, 0 is no effect, 100 is complete control, read-out: Plant response rating (0 to 100), Oat, Wild) of 5%. For the same molecule, the pest or weed control at 125 g/ha (wild oat; 125 g ai/ha, postemergence, visual rating, scale 0 to 100 (0 no effect, 100 complete control), read-out: Plant response rating, Oat, Wild) was 10%, the pest or weed control at 62 g/ha (wild oat; Postemergence, 62 g ai/ha, scale 0 to 100 (0 no effect, 100 complete control), read-out: Plant response rating, Oat, Wild) was 5% and the pest or weed control at 16 g/ha (yellow nutsedge [2]; 16 g ai/ha, postemergence, 0 is no effect, 100 is complete control, read-out: Plant response rating (0 to 100), Nutsedge, Yellow) was 0%. For the same molecule, the pest or weed control at 125 g/ha (yellow nutsedge [2]; 125 g ai/ha, postemergence, visual rating, scale 0 to 100 (0 no effect, 100 complete control), read-out: Plant response rating, Nutsedge, Yellow) was 10%, the pest or weed control at 62 g/ha (yellow nutsedge [2]; Postemergence, 62 g ai/ha, scale 0 to 100 (0 no effect, 100 complete control), read-out: Plant response rating, Nutsedge, Yellow) was 5% and the plant injury at 16 g/ha (corn; 16 g ai/ha, postemergence, 0 is no effect, 100 is complete control, read-out: Plant response rating (0 to 100), Corn) was 5%. It also gave a Corn plant response rating (crop injury, 0 = no effect, 100 = complete kill) at 125 g/ha (corn; 125 g ai/ha, postemergence, visual rating, scale 0 to 100 (0 no effect, 100 complete control)) of 10%, a Corn plant response rating (crop injury, 0 = no effect, 100 = complete kill) at 62 g/ha (corn; Postemergence, 62 g ai/ha, scale 0 to 100 (0 no effect, 100 complete control)) of 5% and a pest or weed control at 16 g/ha (blackgrass [3]; 16 g ai/ha, postemergence, 0 is no effect, 100 is complete control, read-out: Plant response rating (0 to 100), Blackgrass) of 0%. The pest or weed control at 125 g/ha (blackgrass [3]; 125 g ai/ha, postemergence, visual rating, scale 0 to 100 (0 no effect, 100 complete control), read-out: Plant response rating, Blackgrass) was 10%, the pest or weed control at 31 g/ha (blackgrass [3]; Postemergence, 31 g ai/ha, scale 0 to 100 (0 no effect, 100 complete control), 13 to 15 days, read-out: Plant response rating, Blackgrass) was 5% and the pest or weed control at 62 g/ha (blackgrass [3]; Postemergence, 62 g ai/ha, scale 0 to 100 (0 no effect, 100 complete control), read-out: Plant response rating, Blackgrass) was 5%. The pest or weed control at 16 g/ha (yellow nutsedge [4]; [7]) was 5%, the pest or weed control at 62 g/ha (yellow nutsedge [4]; [8]) was 25% and the pest or weed control at 125 g/ha (yellow nutsedge [4]; [9]) was 55%. It also gave a pest or weed control at 16 g/ha (pigweed [5]; [7]) of 85%, a pest or weed control at 62 g/ha (pigweed [5]; [8]) of 100% and a pest or weed control at 125 g/ha (pigweed [5]; [9]) of 100%. For the same molecule, the plant injury at 16 g/ha (soybean; [7]) was 20%, the plant injury at 62 g/ha (soybean; [8]) was 90% and the plant injury at 125 g/ha (soybean; [9]) was 90%. For the same molecule, the pest or weed control at 16 g/ha (blackgrass [6]; 16 g ai/ha, preemergence, scale 0 to 100 (0 no effect, 100 complete control), read-out: Blackgrass plant response rating) was 5%, the pest or weed control at 62 g/ha (blackgrass [6]; 62 g ai/ha, preemergence, scale 0 (no effect) to 100 (complete control), read-out: Blackgrass plant response rating) was 80% and the pest or weed control at 125 g/ha (blackgrass [6]; 125 g ai/ha, preemergence, scale 0 (no effect) to 100 (complete control), read-out: Blackgrass plant response rating) was 90%. The pest or weed control at 31 g/ha (blackgrass [6]; Preemergence, 31 g ai/ha, scale 0 to 100, 0 no effect, 100 complete control, read-out: Plant response rating, Blackgrass) was 20%, the pest or weed control at 16 g/ha (morningglory; [7]) was 0% and the pest or weed control at 62 g/ha (morningglory; [8]) was 10%. For the same molecule, the pest or weed control at 125 g/ha (morningglory; [9]) was 35%, the pest or weed control at 16 g/ha (barnyardgrass; 16 g ai/ha, postemergence, 0 is no effect, 100 is complete control, read-out: Plant response rating (0 to 100), Barnyardgrass) was 5% and the pest or weed control at 125 g/ha (barnyardgrass; 125 g ai/ha, postemergence, visual rating, scale 0 to 100 (0 no effect, 100 complete control), read-out: Plant response rating, Barnyardgrass) was 5%. It also gave a pest or weed control at 31 g/ha (barnyardgrass; Postemergence, 31 g ai/ha, scale 0 to 100 (0 no effect, 100 complete control), 13 to 15 days, read-out: Plant response rating, Barnyardgrass) of 5%, a pest or weed control at 62 g/ha (barnyardgrass; Postemergence, 62 g ai/ha, scale 0 to 100 (0 no effect, 100 complete control), read-out: Plant response rating, Barnyardgrass) of 5% and a pest or weed control at 16 g/ha (ragweed; [7]) of 0%. For the same molecule, the pest or weed control at 62 g/ha (ragweed; [8]) was 5%, the pest or weed control at 125 g/ha (ragweed; [9]) was 10% and the pest or weed control at 16 g/ha (Italian ryegrass; [7]) was 0%. It also gave a pest or weed control at 62 g/ha (Italian ryegrass; [8]) of 20% and a pest or weed control at 125 g/ha (Italian ryegrass; [9]) of 60%.
